Values of other authors as cited in patent US6593300B1, “(3R)-3-amino-4-carboxybutyraldehyde derivatives inhibiting the release of interleukin-1/beta” (Gyogyszerkutato Intezet Kft., priority 1997, dated 2003).

How the values were obtained:
[1] = target: T1, ICE (IL-1β converting enzyme) (Homo sapiens, UniProt P29466); details: literature reports
T1 sequence (P29466 120-297): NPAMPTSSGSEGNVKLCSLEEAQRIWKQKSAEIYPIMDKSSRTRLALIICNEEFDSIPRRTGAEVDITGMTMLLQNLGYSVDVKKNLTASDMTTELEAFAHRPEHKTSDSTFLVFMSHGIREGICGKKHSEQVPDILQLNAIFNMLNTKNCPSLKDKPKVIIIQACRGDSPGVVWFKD
T1 sequence (P29466 317-404): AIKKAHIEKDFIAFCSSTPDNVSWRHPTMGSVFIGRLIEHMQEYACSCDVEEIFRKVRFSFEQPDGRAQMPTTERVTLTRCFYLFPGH

ICE = target: T2, ICE (Mus musculus, UniProt P29452); details: "tissue chamber" model, LPS induced fever or septic shock models
T2 construct: in the mouse, in the “tissue chamber” model as well as in lipopolysaccharide (LPS) induced fever or septic shock models; host or cells: mouse (whole animal, endogenous enzyme)
T2 sequence (P29452 119-296 limits assumed): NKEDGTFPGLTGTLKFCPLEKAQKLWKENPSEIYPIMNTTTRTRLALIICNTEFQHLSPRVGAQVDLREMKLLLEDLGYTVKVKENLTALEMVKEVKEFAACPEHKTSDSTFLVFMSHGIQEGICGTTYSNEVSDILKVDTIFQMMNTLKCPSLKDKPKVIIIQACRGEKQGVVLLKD
T2 sequence (P29452 315-402 limits assumed): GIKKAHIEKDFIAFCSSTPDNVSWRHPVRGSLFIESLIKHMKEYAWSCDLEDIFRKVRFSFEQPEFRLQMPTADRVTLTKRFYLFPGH

Row | Molecule | ICE inhibiting effect [1] | in vivo efficacy (ICE)
1 | O=c1oc(Cl)c(Cl)c2ccccc12 [3,4-dichloro-isocoumarine] | inhibited | –
2 | CC(C)C[C@H](NC(=O)[C@H]1O[C@@H]1C(=O)O)C(=O)NCCCCN=C(N)N [Example E64] | not inhibited | –
3 | O=C(O)CC(CC(=O)COC(=O)c1c(Cl)cccc1Cl)NC(=O)OCc1ccccc1 (centres unmarked) [Z-AhAsp-CH2DCB, Z-NH—CH(CH2COOH)—CH2—CO—CH2DCB] | ineffective | –
4 | O=C(O)C[C@H](NC(=O)OCc1ccccc1)C(=O)COC(=O)c1c(Cl)cccc1Cl [Z-Asp-CH2DCB, Z-NH—CH(CH2COOH)—CO—CH2DCB] | significant ICE inhibiting effect | –
5 | Ac-Tyr-Val-Ala-Asp-H: first reversible inhibitor of ICE, tetrapeptide aldehyde | – | confirmed
